Assay results reported in patent US20180343865A1, “HERBICIDAL COMPOSITIONS COMPRISING ISOXAZOLO[5,4-B]PYRIDINES” (BASF SE, priority 2015, published 2018).
Where “and” joins values, the source holds several entries; their conditions need not be identical. Equal entries are not always repeated. Where two headings read alike, the source gives them in different places.

Columns and labels:
Assay type in all cases: in vivo
Abutilon theoprasti = assay: Greenhouse postemergence herbicidal activity on ABUTH, 20 DAT
Description: (§1) For the post emergence treatment, the plants were first grown to the 2 leaf station (GS 12) and applied at GS 12-19 depending on the species. The herbicidal compositions were suspended or emulsified in water as distribution medium and sprayed using finely distributing nozzles.
(§2) The plants have been cultivated due to their individual requirements at 10 to 25° C. and. 20 to 35° C. The plants were irrigated due to their necessity.
(§3) The respective stated components A), were formulated as a 5% by weight strength emulsion concentrate containing wettol EM 31 20% and Cyclohexanone 80%. The respective stated components B), were formulated as either emulsifiable concentrates (EC), soluble liquids (SL), suspension concentrates (SC) or soluble granules (SG) as indicated in the table below. Component A, component B and the solvent system are introduced into the spray liquor used for applying the active compound. In the examples, the solvent used was water containing 1% Dash (Agnique ME 181 37.5%, Lutensit A-EP 22.5%, and Oleic Acid 5%) and 2% ammonium suflate.
(§4) In the following experiments, the herbicidal activity for the individual herbicide compounds (solo and mixture applications), the herbicidal succession was assessed 20 days after treatment (DAT). The evaluation for the damage on undesired weeds caused by the chemical compositions was carried out using a scale from 0 to 100%, compared to the untreated control plants. Here, 0 means no damage and 100 means complete destruction of the plants. The plants used in the greenhouse experiments belonged to the following species:
(§5) The value E, which corresponds to the effect (in %) that is to be expected if the activity of the individual compounds is additive, was calculated using the method of S. R. Colby (1967) “Calculating synergistic and antagonistic responses of herbicide combinations”, Weeds 15, p. 22 ff. Colby calculation for 2 way mixtures:
(§6) where: • X=effect in percent using herbicide A at an application rate a; • Y=effect in percent using herbicide B at an application rate b; • E=expected effect (in %) of A+B at application rates a+b
(§7) If the value observed in this manner is higher than the value E calculated according to Colby, a synergistic effect is present.

Ambrosia elatior = assay: Greenhouse postemergence herbicidal activity on AMBEL, 20 DAT; conditions: AMBEL, postemergence, 20 DAT
Description: as §1, §2, §3, §4, §5, §6, §7

Setaria viridis = assay: Greenhouse postemergence herbicidal activity on SETVI, 20 DAT; conditions: post-emergence, 62.5 gai/ha, Table 8, read-out: % activity, solo application (I.A)
Description: as §1, §2
The respective stated components A), were formulated as a 5% by weight strength emulsion concentrate containing wettol EM 31 20% and Cyclohexanone 80%. The respective stated components B), were formulated as either emulsifiable concentrates (EC), soluble liquids (SL), suspension concentrates (SC) or soluble granules (SG) as indicated in the table below. […]
In the following experiments, the herbicidal activity for the individual herbicide compounds (solo and mixture applications), the herbicidal succession was assessed 20 days after treatment (DAT). […]
The value E, which corresponds to the effect (in %) that is to be expected if the activity of the individual compounds is additive, was calculated using the method of S. R. Colby (1967) “Calculating synergistic and antagonistic responses of herbicide combinations”, Weeds 15, p. […]
as §7

Amaranthus retroflexus = assay: Greenhouse postemergence herbicidal activity on AMARE, 20 DAT; conditions: AMARE, postemergence; for inhibition at 62.5 g/ha: 62.5 gai/ha
Description: as §1, §2, §3, §4, §5, §6, §7

Stellaria media = assay: Greenhouse postemergence herbicidal activity on STEME, 20 DAT; conditions: STEME, postemergence
Description: as §1, §2, §3, §4, §5, §6, §7

Kochia scoparia = assay: Greenhouse postemergence herbicidal activity on KCHSC, 20 DAT; conditions: for inhibition at 31.25 g/ha: 31.25 gai/ha; for inhibition at 62.5 g/ha: 62.5 gai/ha
Description: as §1, §2, §3, §4, §5, §6, §7

Amaranthus palmeri = assay: Greenhouse postemergence herbicidal activity on AMAPA, 20 DAT
Description: as §1, §2, §3, §4, §5, §6, §7

BROST = assay: Greenhouse postemergence herbicidal activity on BROST, 20 DAT; conditions: post-emergence, 31.25 gai/ha, Table 8, read-out: % activity, solo application (I.A)
CONAR = assay: Greenhouse postemergence herbicidal activity on CONAR, 20 DAT; conditions: post-emergence, Table 8, read-out: % activity, solo application (I.A)
DIGSA = assay: Greenhouse postemergence herbicidal activity on DIGSA, 20 DAT; conditions: Digitaria sanguinalis, post-emergence, Table 8, read-out: % activity, solo application (I.A)
[1] = Bassia scoparia, post-emergence, Table 6, read-out: % activity, solo application (I.A)
[2] = Bassia scoparia, post-emergence, 480 h, 20 DAT, read-out: % activity, solo (I.A)

**Q.** Which results are given for CC(C)c1noc2nc(C3CC3)cc(C(=O)O)c12 [(I.A)]?
**A.** % activity, solo (I.A) (Abutilon theoprasti; 62.5 gai/ha, 20 DAT): 98%; inhibition at 7.8 g/ha (Abutilon theoprasti; Abutilon, post-emergence, 7.8 gai/ha, Table 8, read-out: % activity, solo application (I.A)): 0%; inhibition at 15.6 g/ha (Abutilon theoprasti; Abutilon, post-emergence, 15.6 gai/ha, Table 8, read-out: % activity, solo application (I.A)): 0%; inhibition at 31.25 g/ha (Abutilon theoprasti; Abutilon, post-emergence, 31.25 gai/ha, Table 8, read-out: % activity, solo application (I.A)): 20%; inhibition at 62.5 g/ha (Abutilon theoprasti; Abutilon, post-emergence, 62.5 gai/ha, Table 6, read-out: % activity, solo application (I.A)): 70%; inhibition at 62.5 g/ha (Abutilon theoprasti; Abutilon, post-emergence, 62.5 gai/ha, Table 8, read-out: % activity, solo application (I.A)): 30%; inhibition at 125 g/ha (Abutilon theoprasti; Abutilon, post-emergence, 480 h, 125 gai/ha, 20 DAT, read-out: % activity, solo (I.A)): 73%; inhibition at 250 g/ha (Abutilon theoprasti; Abutilon, post-emergence, 480 h, 250 gai/ha, 20 DAT, read-out: % activity, solo (I.A)): 92%; % activity, solo (I.A) (Ambrosia elatior; 31.25 gai/ha): 50% and 25%; inhibition at 15.6 g/ha (Ambrosia elatior; Ambrosia artemisiifolia, post-emergence, 480 h, 15.6 gai/ha, read-out: % activity, solo (I.A)): 0%; inhibition at 62.5 g/ha (Ambrosia elatior; Ambrosia artemisiifolia, post-emergence, 480 h, 62.5 gai/ha, read-out: % activity, solo (I.A)): 70%; inhibition at 62.5 g/ha (Setaria viridis): 30%; % activity, solo (I.A) (Amaranthus retroflexus; 31.25 gai/ha, 20 DAT): 58% and 78% and 80%; inhibition at 62.5 g/ha (Amaranthus retroflexus; Amaranthus retroflexus, post-emergence, 480 h, 20 DAT, read-out: % activity, solo (I.A)): 94%; inhibition at 125 g/ha (Amaranthus retroflexus; Amaranthus retroflexus, post-emergence, 480 h, 125 gai/ha, 20 DAT, read-out: % activity, solo (I.A)): 93%; inhibition at 7.8 g/ha (Amaranthus retroflexus; Amaranthus retroflexus, post-emergence, 7.8 gai/ha, Table 8, read-out: % activity, solo application (I.A)): 0%; inhibition at 15.6 g/ha (Amaranthus retroflexus; Amaranthus retroflexus, post-emergence, 15.6 gai/ha, Table 8, read-out: % activity, solo application (I.A)): 15%; inhibition at 31.25 g/ha (Amaranthus retroflexus; Amaranthus retroflexus, post-emergence, 31.25 gai/ha, Table 6, read-out: % activity, solo application (I.A)): 65%; inhibition at 62.5 g/ha (Amaranthus retroflexus; Amaranthus retroflexus, post-emergence, Table 8, read-out: % activity, solo application (I.A)): 85%; % activity, solo (I.A) (Stellaria media; 31.25 gai/ha, 20 DAT): 35%; % activity, solo (I.A) (Stellaria media; 62.5 gai/ha, 20 DAT): 70% and 95%; inhibition at 31.25 g/ha (Stellaria media; Stellaria media, post-emergence, 480 h, 31.25 gai/ha, 20 DAT, read-out: % activity, solo (I.A)): 20%; inhibition at 15.6 g/ha (Stellaria media; Stellaria media, post-emergence, 15.6 gai/ha, Table 8, read-out: % activity, solo application (I.A)): 0%; inhibition at 31.25 g/ha (Stellaria media; Stellaria media, post-emergence, 31.25 gai/ha, Table 8, read-out: % activity, solo application (I.A)): 0%; inhibition at 62.5 g/ha (Stellaria media; Stellaria media, post-emergence, 62.5 gai/ha, Table 8, read-out: % activity, solo application (I.A)): 0%; % activity, solo (I.A) (Kochia scoparia; 125 gai/ha, 20 DAT): 95%; inhibition at 31.25 g/ha (Kochia scoparia; [1]): 30%; inhibition at 62.5 g/ha (Kochia scoparia; [1]): 63%; inhibition at 31.25 g/ha (Kochia scoparia; [2]): 35%; inhibition at 62.5 g/ha (Kochia scoparia; [2]): 68%; inhibition at 125 g/ha (Kochia scoparia; Bassia scoparia, post-emergence, 480 h, 125 gai/ha, 20 DAT, read-out: % activity, solo (I.A)): 90%; % activity, solo (I.A) (Amaranthus palmeri; 62.5 gai/ha): 89%; inhibition at 15.6 g/ha (Amaranthus palmeri; Amaranthus palmeri, post-emergence, 480 h, 15.6 gai/ha, read-out: % activity, solo (I.A)): 5%; inhibition at 31.25 g/ha (Amaranthus palmeri; Amaranthus palmeri, post-emergence, 480 h, 31.25 gai/ha, read-out: % activity, solo (I.A)): 80%; inhibition at 62.5 g/ha (Amaranthus palmeri; Amaranthus palmeri, post-emergence, 480 h, 62.5 gai/ha, read-out: % activity, solo (I.A)): 80%; inhibition at 31.25 g/ha (BROST): 0%; inhibition at 7.8 g/ha (CONAR; 7.8 gai/ha): 0%; inhibition at 15.6 g/ha (CONAR; 15.6 gai/ha): 0%; inhibition at 31.25 g/ha (CONAR; 31.25 gai/ha): 0%; inhibition at 62.5 g/ha (CONAR; 62.5 gai/ha): 35%; inhibition at 31.25 g/ha (DIGSA; 31.25 gai/ha): 0%; inhibition at 62.5 g/ha (DIGSA; 62.5 gai/ha): 0%
